Measurements: patent publication US7932270B2 (Cytokinetics, Inc., priority 2006, dated 2011)

target: T1, chicken gizzard smooth muscle myosin subfragment-1 chemically crosslinked to cardiac or skeletal actin (Gallus gallus, UniProt P10587); assay: Smooth muscle myosin ATPase dose response assay (pyruvate kinase/horseradish peroxidase/pyruvate oxidase-coupled, amplex red fluorescence); format: biochemical; conditions: read-out: IC50 Arithmetic Mean
T1 construct: chicken gizzard smooth muscle myosin subfragment-1; from tissue; host or cells: chicken gizzard
Method in brief: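 Amplex red fluorescence (480 nm excitation, 615 nm emission) tracked ATP hydrolysis by smooth muscle S1 crosslinked to actin with carbodiimide/N-hydroxysuccinimide. Reactions contained 0.15 mM ATP and 100 mM KCl at pH 7.00, 22° C. IC50 came from a four-parameter logistic fit.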

T1 sequence (P02607 2-151): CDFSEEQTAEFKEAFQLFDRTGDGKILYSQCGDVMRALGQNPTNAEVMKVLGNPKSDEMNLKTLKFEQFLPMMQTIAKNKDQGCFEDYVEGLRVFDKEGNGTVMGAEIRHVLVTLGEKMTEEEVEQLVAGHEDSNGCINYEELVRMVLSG
T1 sequence (P10587 84-789): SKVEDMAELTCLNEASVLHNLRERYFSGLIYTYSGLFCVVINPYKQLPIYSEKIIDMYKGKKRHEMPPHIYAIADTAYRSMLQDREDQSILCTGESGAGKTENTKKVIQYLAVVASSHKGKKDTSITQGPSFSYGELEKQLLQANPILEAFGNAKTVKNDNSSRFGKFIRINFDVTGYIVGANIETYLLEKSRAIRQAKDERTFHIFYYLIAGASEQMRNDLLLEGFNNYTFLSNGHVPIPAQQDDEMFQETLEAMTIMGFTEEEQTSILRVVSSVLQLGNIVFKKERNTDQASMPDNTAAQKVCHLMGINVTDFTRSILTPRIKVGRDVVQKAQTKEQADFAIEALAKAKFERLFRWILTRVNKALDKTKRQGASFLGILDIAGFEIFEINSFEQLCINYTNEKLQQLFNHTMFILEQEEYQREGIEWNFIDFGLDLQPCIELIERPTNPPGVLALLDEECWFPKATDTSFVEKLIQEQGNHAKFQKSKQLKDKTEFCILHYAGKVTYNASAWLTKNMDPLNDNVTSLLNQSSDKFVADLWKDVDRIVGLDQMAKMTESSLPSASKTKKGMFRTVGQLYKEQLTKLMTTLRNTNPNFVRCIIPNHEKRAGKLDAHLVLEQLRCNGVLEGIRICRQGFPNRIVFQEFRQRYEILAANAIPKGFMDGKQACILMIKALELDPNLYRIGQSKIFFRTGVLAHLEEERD

| SMILES | IC50 |
| --- | --- |
| N#Cc1ccccc1-c1ccc(C(=O)NCCCN2C(=O)CC[C@@H]2CN=[N+]=[N-])c(NCCc2cccc(F)c2)n1 | 5.62 µM |
| CN(CCNC(=O)c1ccc(-c2ccccc2C#N)nc1NCCc1cccc(F)c1)C(=O)CCN [3-amino-N-{2-[(6-(2-cyanophenyl)-2-{[2-(3-fluorophenyl)ethyl]amino}(3-pyridyl))carbonylamino]ethyl}-N-methylpropanamide] | 1.78 µM |
| O=C(NC[C@H]1CCCN1)c1ccc(-c2cn[nH]c2)nc1NCCc1cccc(F)c1 [N-[((2R)pyrrolidin-2-yl)methyl](2-{[2-(3-fluorophenyl)ethyl]amino}-6-pyrazol-4-yl(3-pyridyl))carboxamide] | 4.75 µM |
| CNC(=O)c1ccc(-c2ccccc2)nc1NCCc1ccccc1 [N-methyl{6-phenyl-2-[(2-phenylethyl)amino](3-pyridyl)}carboxamide] | 18.6 µM |
| C[C@@H](NC(=O)OC(C)(C)C)C(=O)N1CCC[C@@H]1CNC(=O)c1ccc(-c2ccccc2C#N)nc1NCCc1cccc(F)c1 [N-[(1R)-2-((2R)-2-{[(6-(2-cyanophenyl)-2-{[2-(3-fluorophenyl)ethyl]amino}(3-pyridyl))carbonylamino]methyl}pyrrolidinyl)-1-methyl-2-oxoethyl](tert-butoxy)carboxamide] | 3.94 µM |
| N#Cc1ccccc1-c1ccc(C(=O)NCCOCCN)c(NCCc2cccc(F)c2)n1 [N-[2-(2-aminoethoxy)ethyl](6-(2-cyanophenyl)-2-{[2-(3-fluorophenyl)ethyl]amino}(3-pyridyl))carboxamide] | 1.62 µM |
| CC(=O)N1CCC[C@H](CNC(=O)c2ccc(-c3ccccc3C#N)nc2NCCc2cccc(F)c2)C1 [N-[((3R)-1-acetyl(3-piperidyl))methyl](6-(2-cyanophenyl)-2-{[2-(3-fluorophenyl)ethyl]amino}(3-pyridyl))carboxamide] | 0.696 µM |
| N#Cc1ccc(CNC(=O)c2ccc(-c3ccccc3C#N)nc2NCCc2cccc(F)c2)cc1 [(6-(2-cyanophenyl)-2-{[2-(3-fluorophenyl)ethyl]amino}(3-pyridyl))-N-[(4-cyanophenyl)methyl]carboxamide] | 0.968 µM |
| CC(C)(C)OC(=O)NCCCC(=O)N1CCC[C@@H]1CNC(=O)c1cc(F)c(-c2ccccc2C#N)nc1NCCc1cccc(F)c1 [N-[((2R)-1-{4-[(tert-butoxy)carbonylamino]butanoyl}pyrrolidin-2-yl)methyl](6-(2-cyanophenyl)-5-fluoro-2-{[2-(3-fluorophenyl)ethyl]amino}(3-pyridyl))carboxamide] | 1.06 µM |
| N#Cc1ccccc1-c1ccc(C(=O)NC[C@H]2CCCN2C(=O)CCCN)c(NCCC2CCOCC2)n1 | 8.77 µM |
| NC(=O)c1ccc(-c2ccc(C(=O)NCc3cccnc3)c(NCCc3ccccn3)n2)cc1 [4-{6-[(2-(2-pyridyl)ethyl)amino]-5-[N-(3-pyridylmethyl)carbamoyl]-2-pyridyl}benzamide] | 2.54 µM |
| N#Cc1cc(C(=O)NC[C@H]2CCC(=O)N2CCCN)c(NCCc2cccc(F)c2)nc1-c1cn[nH]c1 [N-{[(2R)-1-(3-aminopropyl)-5-oxopyrrolidin-2-yl]methyl}(5-cyano-2-{[2-(3-fluorophenyl)ethyl]amino}-6-pyrazol-4-yl(3-pyridyl))carboxamide] | 0.735 µM |
| N#Cc1ccccc1-c1ccc(C(=O)NCCNC(=O)CCN)c(NCCc2cccc(F)c2)n1 [3-amino-N-{2-[(6-(2-cyanophenyl)-2-{[2-(3-fluorophenyl)ethyl]amino}(3-pyridyl))carbonylamino]ethyl}propanamide] | 4.32 µM |
| CC(C)(C)OC(=O)NCCCN1C(=O)CCCCC1CNC(=O)c1ccc(-c2ccccc2C#N)nc1NCCc1cccc(F)c1 (centres unmarked) [N-[(1-{3-[(tert-butoxy)carbonylamino]propyl}-7-oxoazaperhydroepin-2-yl)methyl](6-(2-cyanophenyl)-2-{[2-(3-fluorophenyl)ethyl]amino}(3-pyridyl))carboxamide] | 17.2 µM |
| CN1CCC(CCNc2nc(-c3ccccc3)ccc2C(=O)NCc2cccnc2)CC1 [(2-{[2-(1-methyl(4-piperidyl))ethyl]amino}-6-phenyl(3-pyridyl))-N-(3-pyridylmethyl)carboxamide] | 20.1 µM |
| COCc1ccccc1-c1ccc(C(=O)NCc2cccnc2)c(NCCc2ccccn2)n1 [{6-[2-(methoxymethyl)phenyl]-2-[(2-(2-pyridyl)ethyl)amino](3-pyridyl)}-N-(3-pyridylmethyl)carboxamide] | 84.5 µM |
| NCc1ccc(CNC(=O)c2ccc(-c3ccccc3)nc2NCCc2cccc(F)c2)nc1 [N-{[5-(aminomethyl)(2-pyridyl)]methyl}(2-{[2-(3-fluorophenyl)ethyl]amino}-6-phenyl(3-pyridyl))carboxamide] | 1.06 µM |
| Cn1ccc(CNC(=O)c2ccc(-c3ccccc3)nc2NCCc2ccccn2)n1 [N-[(1-methylpyrazol-3-yl)methyl]{6-phenyl-2-[(2-(2-pyridyl)ethyl)amino](3-pyridyl)}carboxamide] | 2.73 µM |
| COC(=O)[C@@H](CNC(=O)c1cc(F)c(-c2cnn(C)c2)nc1NCCc1cccc(F)c1)NC(=O)OC(C)(C)C [methyl (2R)-2-[(tert-butoxy)carbonylamino]-3-[(5-fluoro-2-{[2-(3-fluorophenyl)ethyl]amino}-6-(1-methylpyrazol-4-yl)(3-pyridyl))carbonylamino]propanoate] | 90.8 µM |
| O=C(NCc1cccnc1)c1ccc(-c2ccc(F)c(F)c2)nc1NCCc1ccccn1 [{6-(3,4-difluorophenyl)-2-[(2-(2-pyridyl)ethyl)amino](3-pyridyl)}-N-(3-pyridylmethyl)carboxamide] | 1.21 µM |
| Cc1ccc(C)c(-c2ccc(C(=O)NCc3cccnc3)c(NCCc3ccccn3)n2)c1 [{6-(2,5-dimethylphenyl)-2-[(2-(2-pyridyl)ethyl)amino](3-pyridyl)}-N-(3-pyridylmethyl)carboxamide] | 13.6 µM |
| O=C1CNCC(CNC(=O)c2ccc(-c3ccn[nH]3)nc2NCCc2cccc(F)c2)N1 (centres unmarked) [(2-{[2-(3-fluorophenyl)ethyl]amino}-6-pyrazol-5-yl(3-pyridyl))-N-[(6-oxopiperazin-2-yl)methyl]carboxamide] | 6.95 µM |

Further lines, results first:

| IC50 | SMILES |
| --- | --- |
| 0.415 µM | CC(O)c1ccc(-c2ccc(C(=O)NCc3cccnc3)c(NCCc3cccc(F)c3)n2)s1 (centres unmarked) [(2-{[2-(3-fluorophenyl)ethyl]amino}-6-[5-(hydroxyethyl)(2-thienyl)](3-pyridyl))-N-(3-pyridylmethyl)carboxamide] |
| 0.45 µM | Cc1cccc(CCNc2nc(-c3ccccc3)ccc2C(=O)NCc2cccnc2)c1 [(2-{[2-(3-methylphenyl)ethyl]amino}-6-phenyl(3-pyridyl))-N-(3-pyridylmethyl)carboxamide] |
| 0.008 µM | NCc1ncccc1CNC(=O)c1ccc(-c2ccccc2)nc1NCCc1cccc(F)c1 [N-{[2-(aminomethyl)(3-pyridyl)]methyl}(2-{[2-(3-fluorophenyl)ethyl]amino}-6-phenyl(3-pyridyl))carboxamide] |
| 0.037 µM | N#Cc1ccccc1-c1ccc(C(=O)NCc2cccc(CO)n2)c(NCCc2cccc(F)c2)n1 [(6-(2-cyanophenyl)-2-{[2-(3-fluorophenyl)ethyl]amino}(3-pyridyl))-N-{[6-(hydroxymethyl)(2-pyridyl)]methyl}carboxamide] |
| 0.086 µM | N#Cc1cccc(F)c1-c1ccc(C(=O)NCc2cccnc2)c(NCCc2cccc(F)c2)n1 [(6-(2-cyano-6-fluorophenyl)-2-{[2-(3-fluorophenyl)ethyl]amino}(3-pyridyl))-N-(3-pyridylmethyl)carboxamide] |
| 0.683 µM | O=C(NCc1ccsc1)c1ccc(-c2ccccc2)nc1NCCc1ccccn1 [{6-phenyl-2-[(2-(2-pyridyl)ethyl)amino](3-pyridyl)}-N-(3-thienylmethyl)carboxamide] |
| 0.047 µM | N#Cc1ccccc1-c1ccc(C(=O)NCc2cccc(C(=O)O)n2)c(NCCc2cccc(F)c2)n1 [6-{[(6-(2-cyanophenyl)-2-{[2-(3-fluorophenyl)ethyl]amino}-3-pyridyl)carbonylamino]methyl}pyridine-2-carboxylic acid] |
| 0.022 µM | N#Cc1ccccc1-c1ccc(C(=O)NCc2cccnc2N)c(NCCc2cccc(F)c2)n1 [N-[(2-amino(3-pyridyl))methyl](6-(2-cyanophenyl)-2-{[2-(3-fluorophenyl)ethyl]amino}(3-pyridyl))carboxamide] |
| 0.042 µM | N#Cc1ccccc1-c1nc(NCCc2cccc(F)c2)c(C(=O)NC[C@H]2CCCN2C(=O)CCN)cc1F [N-{[(2R)-1-(3-aminopropanoyl)pyrrolidin-2-yl]methyl}(6-(2-cyanophenyl)-5-fluoro-2-{[2-(3-fluorophenyl)ethyl]amino}(3-pyridyl))carboxamide] |
| 0.687 µM | O=C1CCCCC(CNC(=O)c2ccc(-c3cn[nH]c3)nc2NCCc2cccc(F)c2)N1 (centres unmarked) [(2-{[2-(3-fluorophenyl)ethyl]amino}-6-pyrazol-4-yl(3-pyridyl))-N-[(7-oxoazaperhydroepin-2-yl)methyl]carboxamide] |
| 0.314 µM | C[C@H](N)C(=O)N1CCCC1CNC(=O)c1cc(F)c(-c2cc[nH]n2)nc1NCCc1cccc(F)c1 (stereo partly drawn) [N-{[(2R)-1-((2S)-2-aminopropanoyl)pyrrolidin-2-yl]methyl}(5-fluoro-2-{[2-(3-fluorophenyl)ethyl]amino}-6-pyrazol-3-yl(3-pyridyl))carboxamide] |
| 0.581 µM | Cn1cc(-c2ccc(C(=O)NC[C@H]3CCCN3C(=O)CN)c(NCCc3cccc(F)c3)n2)cn1 [N-{[(2R)-1-(2-aminoacetyl)pyrrolidin-2-yl]methyl}(2-{[2-(3-fluorophenyl)ethyl]amino}-6-(1-methylpyrazol-4-yl)(3-pyridyl))carboxamide] |
| 0.572 µM | N#Cc1ccccc1-c1ccc(C(=O)NCC2CCN(C(=O)CN)CC2)c(NCCc2cccc(F)c2)n1 [N-{[1-(2-aminoacetyl)(4-piperidyl)]methyl}(6-(2-cyanophenyl)-2-{[2-(3-fluorophenyl)ethyl]amino}(3-pyridyl))carboxamide] |
